The numbers were not newly measured in patent US20110015074A1, “STABILIZED HERBICIDAL FORMULATIONS AND METHODS OF USE” (priority 2009, published 2011), which cites them from elsewhere.

The conditions of this data set: sunlight (UV), after the end of the second year of storage period.

Turning to `CCSC(C)CC1CC(=O)C(/C(CC)=N/OC/C=C/Cl)=C(O)C1` (racemic) [clethodim (technical), (±)-2-[(E)-1-[(E)-3-Chloroallyloxyimino]propyl]-5-[2-(ethylthio)propyl]-3-hydroxycyclohex-2-enone], the “loss or degradation of clethodim” value is given as 42.33 % active ingredient.
